Assay results reported in PMC4427029 (Cell, 2015).
Like-named read-outs stand apart in the source and are kept apart here.

Tests used:
[1] = system: AT1R; details: cited from earlier work
[2] = system: AT1R single mutants; test: Ligand binding assays on AT1R single mutants, COS-1 cell membranes; details: residues Tyr35, Trp84, Arg167 and Lys199
[3] = target: T1, AT1R single mutants (Homo sapiens, UniProt P30556, P285A); test: as above; details: Pro285Ala mutant
T1 sequence (P30556 1-359 P285A): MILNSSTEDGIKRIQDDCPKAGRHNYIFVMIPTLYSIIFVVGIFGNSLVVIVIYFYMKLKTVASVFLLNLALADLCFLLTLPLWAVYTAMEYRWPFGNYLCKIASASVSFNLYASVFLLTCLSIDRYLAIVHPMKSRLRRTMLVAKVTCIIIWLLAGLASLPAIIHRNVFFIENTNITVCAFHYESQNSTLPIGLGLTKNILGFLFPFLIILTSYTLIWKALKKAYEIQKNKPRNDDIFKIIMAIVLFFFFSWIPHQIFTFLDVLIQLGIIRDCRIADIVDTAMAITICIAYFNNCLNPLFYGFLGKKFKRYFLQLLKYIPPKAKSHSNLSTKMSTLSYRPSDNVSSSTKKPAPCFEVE

Q: Which “binding affinity to AT1R compared to the later developed ARBs” value ([1]; ref Miura et al., 2011) does the source give for `CCCCc1nc(Cl)c(CO)n1Cc1ccc(-c2ccccc2-c2nn[nH]n2)cc1` [Losartan, losartan] here?
A: lower

Q: What about the mode of antagonism ([1]; ref Miura et al., 2011) of the same compound?
A: surmountable antagonist

Q: Which “potency and duration compared with losartan” value ([1]; ref Junggren et al., 1996) does the source give for `CCc1cc2c(c(CC)n1)CCC(=O)N2Cc1ccc(-c2ccccc2-c2nn[nH]n2)cc1` [ZD7155] here?
A: more potent and longer-lasting

Q: What does the source list for `CCOc1nc2cccc(C(=O)O)c2n1Cc1ccc(-c2ccccc2-c2nnn[nH]2)cc1` [candesartan]?
A: dissociation rate from AT1R ([1]; ref Takezako et al., 2004): slow; mode of antagonism ([1]; ref Takezako et al., 2004): insurmountable inverse agonist; role of residues for binding (mutagenesis) [2]: critical

Q: Which “change of binding affinity at mutant” value [3] does the source give for `CCCCc1ncc(/C=C(\Cc2cccs2)C(=O)O)n1Cc1ccc(C(=O)O)cc1` [eprosartan] here?
A: strong decrease

Q: With [Sar^1, Ile^8]-AngII as the compound, how does the “role of residues for binding (mutagenesis)” value [2] read?
A: critical
